Usually pIC50 stands for −log10 of the IC50, conventionally taken in molar units. Usually inhibition in vivo stands for the share of the control response that was lost under treatment.

pIC50: −log10 of the molar value. Structures can show the parent of a compound that is named as a salt. Where two headings read alike, the source gives them in different places.

The values below come from patent US5547972A, “Therapeutic agents useful for treating inflammatory diseases” (The Boots Company PLC, priority 1991, dated 1996).

Experiment [1] has as its system Zymosan Stimulated Macrophaqes. The experiment can be described thus: Test A: Inhibition of Arachidonic Acid Release from Zymosan Stimulated Macrophages. As to conditions: inhibition of arachidonic acid release, six concentrations (100, 50, 20, 10, 5 and 1 μM), 5 h with zymosan, read-out: Test A IC50. The experiment is classed as cell-based, mouse (female MF1). How it is done:
Inhibition of Arachidonic Acid Release from Zymosan Stimulated Macrophaqes
Female MF1 mice (weighing 20 to 25 g) were killed using a rising concentration of CO2. The mice were laid on their backs and the abdomens wiped with 70% alcohol. The skin was pulled back, exposing the peritoneal wall. Medium A (5 ml) (see below) was injected into the peritoneal cavity of each mouse followed by approximately 1 ml of air using a 20 ml syringe and a 21 G×40 mm needle in order to form a suspension of macrophage cells. The medium and cells were then removed using a 19 G×40 mm needle. The resulting suspension was returned to a sterile beaker kept on ice. The extracts from all the mice were pooled and this pooled cell suspension was counted using a Coulter counter and adjusted to a final cell count of 1-1.3×10^6 cells/ml prior to labelling with [^3 H]-arachidonic acid. Typically five mice provided sufficient cells for each multiwell plate.
Sufficient [^3 H]-arachidonic acid in ethanol to give a final concentration of 1.6 μCi/ml (equivalent to 40 μCi/plate) was blown to dryness under nitrogen. The arachidonic acid was then resuspended in 1 or 2 ml of the cell suspension which was then mixed with the remainder of the cell suspension in a centrifuge bottle. The labelled cell suspension was then plated out into sterile plastic 96 flat-bottomed well plates (250 μl per well) and incubated overnight at 37° C. in a moist atmosphere of 5% CO2, 95% air.
The following day, non-adherent cells were removed by washing 3 times with sterile phosphate buffered saline (PBS). The adherent peritoneal macrophages were then cultured for a further 24 hours in the presence or absence of drugs, in medium B (see below) at 37° in a 5% CO2 atmosphere in order to measure the effects of drugs on the spontaneous release of arachidonic acid in the absence of stimulus. After this incubation, supernatants were removed to give media 1 and stored in sealed multi-well plates at 4° C. prior to scintillation counting. Drugs which potentiated spontaneous release of arachidonic acid (125% of controls) were deemed to be toxic at the concentration at which this phenomenon occurred. The supernatants were replaced by fresh medium C containing fresh drug and a stimulus. Three drugs were tested at six concentrations (100, 50, 20, 10, 5 and 1 μM) in replicates of four on each plate. The other wells contained controls consisting of a positive control (e.g. dexamethasone), medium (B) only and medium C only.
Incubation was then continued for a further 5 hours, whereupon the supernatants were collected to give media 2 and the adherent cells washed with PBS. The cells were then lysed with 100 μl of 0.1% TRITON® X100 in a 0.1% solution of bovine serum albumin in 0.9% saline and mechanically disrupted to give cell lysates. These supernatants (media 2) and cell lysates (Cells) were also stored in sealed multi-well plates at 4° C. prior to scintillation counting. 200 μl aliquots of media, or 100 μl aliquots of cells were counted using 2 ml of OPTIPHASE "HIGH SAFE" (Trademark of LKB) as scintillant.
The percentage of arachidonic acid released was calculated using the mean values for each group of 4 wells in the following equation. [formula] cpm=courts per minute
The value for the arachidonic acid release in the absence of stimulus (spontaneous, cpm of media 2) from cells which had been exposed to neither stimulus nor drug was subtracted from all equivalent values (cpm media 2, stimulated with or without drug) to give the net stimulated release. The percentage inhibition of arachidonic acid release caused by a drug may then be calculated using the following equation. [formula]
Compounds of formula I were tested at six concentrations (100, 50, 20, 10, 5 and 1 μM) and IC50 values calculated. Compounds with IC50 values<100 μM are considered to be active. Advantageous compounds have an IC50 value <50 μM.
Medium A (for peritoneal lavage) […]

For experiment [2], the system named is Carrageenan-induced rat paw oedema. The experiment can be described thus: Test B: Carrageenan-induced rat paw oedema test. Conditions: inhibition of paw oedema, 1 h before carrageenan, 3 h after injection; for inhibition in vivo at 100 mg/kg: Rattus norvegicus, po, 3 h; for Test B % inhibition at 100 mg/kg: oral. It counts as in vivo, rat (female). How it is done: Carrageenan-induced rat paw oedema test
Female rats, weight range 125-150 g were fasted overnight. One of the hind legs of each animal was marked with a line at the connection between the cuboid/navicular and calcaneus/talus bones. Groups of six rats were orally dosed at 10 ml/kg, in random order, with a given dose of the test compound given as a solution or suspension in 10% (w/v) aqueous acacia solution.
One hour after dosing, 0.1 ml of 1% (w/v) sterile carrageenan λ in normal saline was injected deeply into the plantar surface of the marked hind foot of each rat. The volume of the foot (up to the marked line) was measured immediately after injection using duplicate water displacement readings. Three hours after injection the foot volume was measured again and the percentage increase in foot volume relative to the initial reading was calculated.
The increase in foot volume (i.e. the degree of oedema) in drug treated animals when compared with that in the drug untreated control gave the degree of inhibition of paw oedema by the drug.
Compounds were considered to be active in this test if they produced a 20% or greater inhibition of paw oedema in at least two out of three tests after oral dosing at 100 mg/kg. Statistical significance was assessed using the Student't test for single dose studies and Dunnett's test for multiple dose studies. More advantageous compounds were active in both Tests A and B,
A general note: In the carrageenan paw model, swelling and tenderness develop within hours.

For the molecule `CC(NCCCn1ccnc1)c1ccc(Cl)c(Cl)c1Cl` (stereo not drawn) [Example 13, N-[1-(2,3,4-Trichlorophenyl)ethyl]-3-(imidazol-1-yl)propylamine dihydrochloride], in experiment [1] (Mus musculus, Macrophage, 5 h), the pIC50 is 4.89. Besides, 100 mg/kg produced 70% inhibition in vivo in experiment [2].
For `CC(NCCCn1ccnc1)c1ccc(Cl)c(C(F)(F)F)c1` (stereo not drawn) [Example 9, N-[1-(4-Chloro-3-trifluoromethylphenyl)ethyl]-3-(imidazol-1-yl)propylamine], the pIC50 in experiment [1] (Mus musculus, Macrophage, 5 h) is 4.66. The same molecule showed an inhibition in vivo at 100 mg/kg in experiment [2] of 78%.
On to `Clc1ccc(CNCCCn2cnc(Cl)c2Cl)cc1` [Example 64, N-(4-chlorobenzyl)-3-(4,5-dichloroimidazol-1-yl)propylamine dihydrochloride], for which, in experiment [1] (Mus musculus, Macrophage, 5 h), the pIC50 is 4.74. In experiment [2], testing at 100 mg/kg gave an inhibition in vivo of 30%.
The like results for `CC(NCCCn1ccnc1)c1cccc(Cl)c1` (stereo not drawn) [Example 7, N-[1-(3-Chlorophenyl)ethyl]-3-(imidazol-1-yl)propylamine] were, in that order, 4.03 and 48%.
Regarding `CC(C)c1nccn1CCCNC(C)c1ccc(Cl)cc1` (stereo not drawn) [Example 65, N-[1-(4-Chlorophenyl)ethyl]-3-(2-isopropylimidazol-1-yl)propylamine], in experiment [1] (Mus musculus, Macrophage, 5 h), the pIC50 was 4.74. The molecule also came in with an inhibition in vivo at 100 mg/kg in experiment [2] of 27%.
The matching figures for `CC(NCCCn1cnc(Cl)c1Cl)c1ccc(Cl)cc1` (stereo not drawn) [Example 67, N-[1-(4-Chlorophenyl)ethyl]-3-(4,5-dichloroimidazol-1-yl)propylaminesesquihydrochloride]: 4.74 and 42%.
In the case of `CC(C)(NCCCn1cncc1CO)c1ccc(Cl)cc1` [Example 88, 1-{3-[1-(4-Chlorophenyl)-1-methylethylamino]propyl}imidazol-5-yl-methanol dihydrochloride], in experiment [1] (Mus musculus, Macrophage, 5 h), the pIC50 was 4.22. Besides, at 100 mg/kg the inhibition in vivo in experiment [2] was 6%.
The like results for `c1ccc(C(NCCCn2ccnc2)c2ccccc2)cc1` [Example 34, N-benzhydryl-3-(imidazol-1-yl)propylamine dihydrochloride] were, in that order, 4.49 and 47%.
The like results for `CC(NCCCn1ccnc1)c1ccc(Br)cc1` (stereo not drawn) [Example 14, N-[1-(4-Bromophenyl)ethyl]-3-(imidazol-1-yl)propylamine] were, in that order, 4.22 and 60%.
In the case of `CC(NCCCCn1ccnc1)c1ccc(Cl)cc1` (stereo not drawn) [Example 26, N-[1-(4-Chlorophenyl)ethyl]-4-(imidazol-1-yl)butylamine], in experiment [1] (Mus musculus, Macrophage, 5 h), the pIC50 is 4.25. In experiment [2], this molecule came in with an inhibition in vivo at 100 mg/kg of 40%.
Take `CC(NCCCn1ccnc1)c1ccc(Cl)cc1` (single isomer, unassigned; (+)) [Example 56, (+) N-[1-(4-Chlorophenyl)ethyl]-3-(imidazol-1-yl)propylamine dihydrochloride]: in experiment [1] (Mus musculus, Macrophage, 5 h), the pIC50 was 4.80. For the same molecule, in experiment [2], the inhibition in vivo at 100 mg/kg worked out at 57%.
Take `CC(NCCCn1ccnc1)c1ccc(Cl)c(F)c1` (stereo not drawn) [Example 10, N-[1-(4-Chloro-3-fluorophenyl)ethyl]-3-(imidazol-1-yl)propylamine dihydrochloride]: the pIC50 in experiment [1] (Mus musculus, Macrophage, 5 h) was 4.40. The molecule further returned an inhibition in vivo at 100 mg/kg in experiment [2] of 49%.
Turning to `CC(NCCCn1ccnc1)c1ccc(Cl)cc1.Cl.Cl` (single isomer, unassigned; (-)) [Example 57, (-)N-[1-(4-Chlorophenyl)ethyl]-3-(imidazol-1-yl)propylamine dihydrochloride], in experiment [1] (dihydrochloride), the pIC50 is 4.70. For the same molecule, the “Test B % inhibition at 100 mg/kg” value in experiment [2] (dihydrochloride) was 48%.
As for `Cc1ccc(C(C)(C)NCCCn2ccnc2)cc1` [Example 75, 3-(Imidazol-1-yl)-N-[1-methyl-1-(p-tolyl)ethyl]propylamine dihydrochloride], the pIC50 in experiment [1] (Mus musculus, Macrophage, 5 h) was 4.33. This molecule returned an inhibition in vivo at 100 mg/kg in experiment [2] of 42%.
As to `Cc1cn(CCCNCc2ccc(Cl)cc2)c(Cc2ccccc2)n1` [Example 47], in experiment [1], the pIC50 is 5.15. In addition, the “Test B % inhibition at 100 mg/kg” value in experiment [2] amounted to 35%.
In the case of `CC(C)(NCCCn1cnc(CO)c1)c1ccc(-c2ccccc2)cc1` [Example 85, 1-{3-[1-(4-biphenylyl)-1-methylethylamino]propyl}imidazol-4-yl-methanol], in experiment [1] (Mus musculus, Macrophage, 5 h), the pIC50 was 4.35. The inhibition in vivo at 100 mg/kg in experiment [2] was 0%.
The like results for `CC(=O)OCc1ncn(CCCNC(C)(C)c2ccc(Cl)cc2)c1C` [Example 98, 1-{3-[1-(4-chlorophenyl)-1-methylethylamino]propyl}-5-methylimidazol-4-ylmethyl acetate dihydrochloride] were, in that order, 4.35 and 4%.
Take `CCC(NCCCn1ccnc1)c1ccc(Cl)cc1` (stereo not drawn) [Example 30, N-[1-(4-chlorophenyl)propyl]-3-(imidazol-1-yl)propylamine oxalate]: the pIC50 in experiment [1] (Mus musculus, Macrophage, 5 h) was 4.62. Also, the inhibition in vivo at 100 mg/kg in experiment [2] was 39%.
The matching figures for `CC(C)(NCCCn1cncc1CO)c1ccc(Cl)c(Cl)c1` [Example 84, 1-{3-[1-(3,4-Dichlorophenyl)-1-methylethylamino]propyl}imidazol-5-ylmethanol]: 4.62 and 19%.
On to `CC(NCCCn1ccnc1)c1ccc(C(C)(C)C)cc1` (stereo not drawn) [Example 19, N-[1-(4-Tert-butylphenyl)ethyl]-3-(imidazol-1-yl)propylamine], for which the pIC50 in experiment [1] (Mus musculus, Macrophage, 5 h) was 4.92. Also, in experiment [2], testing at 100 mg/kg gave an inhibition in vivo of 27%.
For the molecule `CCCCOc1ccc(C(C)NCCCn2ccnc2)cc1` (stereo not drawn) [Example 22, N-[1-(4-Butoxyphenyl)ethyl]-3-(imidazol-1-yl)propylamine dioxalate], in experiment [1] (Mus musculus, Macrophage, 5 h), the pIC50 was 4.68. Also, the inhibition in vivo at 100 mg/kg in experiment [2] was 17%.
The like results for `Cc1cn(CCCNC(C)c2ccc(Cl)cc2)c(Cc2ccccc2)n1` (stereo not drawn) [Example 32, 3-[2-benzyl-4-methylimidazol-1-yl]-N-[1-(4-chlorophenyl)ethyl]propylamine] were, in that order, 5.22 and 35%.
With `COC(=O)c1ccc(CNCCCn2ccnc2C)cc1` [Example 49, methyl 4-[3-(2-methylimidazol-1-yl)propylaminomethyl]benzoate], the pIC50 in experiment [1] (Mus musculus, Macrophage, 5 h) is 4.35. For the same molecule, in experiment [2], the inhibition in vivo at 100 mg/kg is 0%.
The like results for `CC(NCC(C)(C)Cn1ccnc1)c1ccc(Cl)cc1` (stereo not drawn) [Example 58, N-[1-(4-chlorophenyl)ethyl]-3-(imidazol-1-yl)-2,2-dimethylpropylamine] were, in that order, 4.26 and 79%.
